Laboratory results taken from ChEMBL document CHEMBL1136024, “CCR3 antagonists: a potential new therapy for the treatment of asthma. Discovery and structure-activity relationships” (Bioorg Med Chem Lett, 2002).

Legend:
[1] = molecular target: T1, C-C chemokine receptor type 3 (Homo sapiens) (UniProt P51677); assay: In vitro inhibitory activity against C-C chemokine receptor type 3 at 10 uM using 150p M [125I]-labeled human eotaxin
T1 sequence (whole entry): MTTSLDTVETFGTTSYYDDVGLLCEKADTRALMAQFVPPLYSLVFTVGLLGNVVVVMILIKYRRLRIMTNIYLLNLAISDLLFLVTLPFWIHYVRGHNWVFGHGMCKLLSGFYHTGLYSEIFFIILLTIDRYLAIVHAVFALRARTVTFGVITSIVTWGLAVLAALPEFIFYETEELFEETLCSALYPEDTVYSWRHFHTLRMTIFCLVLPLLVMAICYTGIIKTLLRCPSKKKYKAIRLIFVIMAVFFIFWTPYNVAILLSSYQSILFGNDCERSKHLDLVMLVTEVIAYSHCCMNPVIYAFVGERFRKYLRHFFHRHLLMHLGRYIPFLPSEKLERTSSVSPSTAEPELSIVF

[2] = molecular target: T2, C-C chemokine receptor type 3 (Homo sapiens, UniProt P51677); assay: In vitro inhibition if C-C chemokine receptor type 3 (CCR3) using 150p M [125I]-labeled human eotaxin
T2 sequence (P51677 whole entry): T1 sequence (whole entry)

[3] = molecular target: T2, C-C chemokine receptor type 3; assay: In vitro C-C chemokine receptor type 3 receptor activity of compound to inhibit eotaxin induced [Ca2+] mobilization in human Ca2+ mobilization assay
[4] = molecular target: T1, C-C chemokine receptor type 3 (Homo sapiens); assay: In vitro inhibitory activity of compound against C-C chemokine receptor type 3 at 5 uM using 150p M [125I]-labeled human eotaxin as radioligand
[5] = molecular target: T1, C-C chemokine receptor type 3 (Homo sapiens); conditions: 0.5 uM
Description: In vitro inhibitory activity of compound against C-C chemokine receptor type 3 at 0.5 uM using 150p M [125I]-labeled human eotaxin as radioligand

Row | Compound | inhibition [1] | IC50 [2] | IC50 [3] | inhibition [4] | inhibition [5]
1 | CC(C)(C)C(=O)NCCCCN1CC[C@@H]2[C@H](C1)c1cccc3c1N2CC3 | 45% | 25.6 µM |  |  | 
2 | O=C(NCCCCN1CC[C@@H]2[C@H](C1)c1cccc3c1N2CC3)C1CCCCC1 | 45% | 11 µM |  |  | 
3 | O=C(NCCCCN1CC[C@@H]2[C@H](C1)c1cccc3c1N2CC3)C12CC3CC(CC(C3)C1)C2 | 73% | 6.6 µM |  |  | 
4 | N#Cc1cccc(NC(=O)NCCCN2CCC(Cc3ccc(C(F)(F)F)cc3)CC2)c1 |  |  |  | 52% | 
5 | CC[C@H](O)[C@H]1C[C@@H](Cc2ccccc2)CCN1CCCNC(=O)Nc1cccc(C(C)=O)c1 |  |  |  |  | 40%

Further molecules by falling IC50 [2], results first:

Row | inhibition [1] | IC50 [2] | IC50 [3] | inhibition [4] | inhibition [5] | Compound
6 |  | 0.05 µM | 0.82 µM |  |  | COc1cccc(NC(=O)N2CCCC(CN3CCC(Cc4ccc(F)cc4)CC3)C2)c1 (racemic)
7 |  | 0.05 µM | 0.22 µM |  |  | COc1cccc(NC(=O)N2CCOC(CN3CCC(Cc4ccc(F)cc4)CC3)C2)c1 (racemic)
8 |  | 0.04 µM | 0.2 µM |  |  | COc1cccc(NC(=O)N2CCN(C(=O)OC(C)(C)C)C(CN3CCC(Cc4ccc(F)cc4)CC3)C2)c1 (racemic)
9 |  | 0.03 µM | 0.14 µM |  |  | COc1cccc(NC(=O)N2CCNC(CN3CCC(Cc4ccc(F)cc4)CC3)C2)c1 (racemic)
